Experimental data from patent US10253037B2, “Drug with antiviral activity (variants)” (priority 2015, dated 2019).

Columns and labels:
HIV-1899A strain [1] = test: Antiviral effect in MT-4 cells infected with HIV-1 (MTT, cytopathic effect, syncytium); type: cell-based; settings: 0.01 TCD50/cell, 5 days
Description: Cells. MT-4 human lymphoblastoid cells were used. The cells were incubated in RPMI 1640 medium with 10% serum of cow embryos, 100 μg/ml of gentamicin.
Viruses. HIV-1899A strain was used as the source of the virus.
The drug. Samples of drugs dissolved in dimethylsulfoxide were studied.
Study of the antiviral effect of the drug.
(§1) The investigated medicinal products were added to the cells at various doses with simultaneous infection with the virus at a dose of 0.01 TCD50/cell. The cell cultures were incubated at 37° C. in the atmosphere with 5% of CO2 and at 98% humidity for 5 days. The results were recorded by staining the cells with tetrazolium dye (MTT method) with spectrophotometry and light microscopy: investigation of cytopathic effect of the virus (CPD) and virus-induced formation of syncytium (syncytium is a conglomerate of several cells with a common cell membrane formed as a result of fusion of their membranes).
The degree of protection of cells from the cyto-destructive effect of the virus was determined by the following formula:
[formula] where • A is the number of viable cells in the experimental group; • B is the same in the infected culture (virus control); • K is the same in the uninfected culture (cell control).

HIV-1899A strain [2] = test: Joint action with anti-HIV drugs: cell protection in HIV-1 infected MT-4 cells (MTT); type: cell-based
Description: MT-4 human lymphoblastoid cells were used. The cells were cultured in RPMI 1640 medium with 10% serum of cow embryos, 100 μg/ml gentamicin.
The strain of HIV-1899A was used as a source of the virus.
The drug. Samples of drugs dissolved in dimethylsulfoxide were studied. As an antiretroviral reference drug, Raltegravir (prototype) was used.
Study of the antiviral action of the drug (cell protection).
as §1, with “drugs” for “medicinal products”, “Cell” for “The cell”, “5%” for “5% of”, “and” for “and at”

[3] = tested on: MT-4 human lymphoblastoid cells; test: Cytotoxic effect of the drug on uninfected MT-4 cells (viability by dye); type: cell-based; settings: 5 days
Description: Cells. MT-4 human lymphoblastoid cells were used. […] The drug. Samples of drugs dissolved in dimethylsulfoxide were studied. Study of the cytotoxic effect of the drug. The investigated medicinal product was added to the cells in various concentrations. […] Recording of the results: determination of the viability and the number of the cells by means of a dye.

Hepatitis B virus (HBV) = test: Amount of extracellular HBV DNA in HepG2.2.15 culture medium (RT-PCR); type: cell-based; settings: 5 μg/ml, HepG2.2.15 cells, 5 days; untreated control 4.42 +/− 0.28
Description: HepG2.2.15 line cells infected with Hepatitis B virus were grown in DMEM medium supplemented with 10% bovine serum at 5% CO2, 37° C.
Analysis of the amount of extracellular HBV of the DNA.
After 5 days of HepG2.2.15 incubation the culture medium was selected, the cells were separated by centrifugation, and the DNA was isolated by the Klintschar and Neuhuber method (Klintschar and Neuhuber, 2000). Quantitation of HBV was performed using RT-PCR.

| melting point | SMILES | HIV 1 infection Cytopathic effect of the virus, % (HIV-1899A strain [1]; 10 μg/ml) | HIV 1 infection Protection of cells, % (HIV-1899A strain [1]; 10 μg/ml) | HIV 1 infection Cytopathic effect of the virus, % (HIV-1899A strain [1]; 30 μg/ml) | HIV 1 infection Protection of cells, % (HIV-1899A strain [1]; 30 μg/ml) | HIV 1 infection Cytopathic effect of the virus, % (HIV-1899A strain [1]; 50 μg/ml) | Protection of cells, % (HIV-1899A strain [2]; Raltegravir alone, 10 μg/ml) | Protection of cells, % (HIV-1899A strain [2]; Lopinavir alone, 2.5 μg/ml) | Without virus (cytotoxicity) Viability of cells, % ([3]; 10 μg/ml) | Without virus (cytotoxicity) Viability of cells, % ([3]; 30 μg/ml) | Without virus (cytotoxicity) Viability of cells, % ([3]; 50 μg/ml) | HIV 1 infection Protection of cells, % (HIV-1899A strain [1]; 50 μg/ml) | HBV Log10 IU/ml (amount of extracellular DNA HBV) (Hepatitis B virus (HBV)) | Protection of cells, % (HIV-1899A strain [2]; Retrovir alone, 0.003 μg/ml) |
| --- | --- | --- | --- | --- | --- | --- | --- | --- | --- | --- | --- | --- | --- | --- |
| – | Cc1nnc(C(=O)NC(C)(C)c2nc(C(=O)NCc3ccc(F)cc3)c(O)c(=O)n2C)o1 [Raltegravir, reference compound] | 0.0-0.0% | 90% | 0.0-0.0% | 100% | 0.0% | 23% | – | – | – | – | – | – | – |
| – | Cc1cccc(C)c1OCC(=O)N[C@@H](Cc1ccccc1)[C@@H](O)C[C@H](Cc1ccccc1)NC(=O)[C@H](C(C)C)N1CCCNC1=O [Lopinavir] | – | – | – | – | – | – | 17% | – | – | – | – | – | – |
| – | COc1ccc(C2c3c(O)nc(Cl)nc3Oc3nc(Cl)nc(O)c32)cc1 [Derivative 7] | 12-65% | 45% | 5-15% | 80% | 0.0-0.0% | – | – | 100.0% | 100.0% | 100.0% | 100% | 2.74 +/− 0.25 Log10 IU/ml | – |
| – | Cc1cn([C@H]2C[C@H](N=[N+]=[N-])[C@@H](CO)O2)c(=O)[nH]c1=O [Retrovir] | – | – | – | – | – | – | – | – | – | – | – | – | 13% |
| – | Oc1nc(Cl)nc2c1C(c1cccc(Cl)c1)c1c(O)nc(Cl)nc1O2 [Derivative 6] | 57.5-80.0% | 10.7% | 37.5-62.5% | 71.7% | 0.0-0.0% | – | – | 100.0% | 100.0% | 100.0% | 90.5% | – | – |
| 270 °C (dec.) | O=[N+]([O-])c1ccc(C2C3=C(O)NC(O)(S)N=C3Oc3nc(Cl)nc(O)c32)cc1 (stereo not shown) [Derivative 4, 2-chloro-8-sulfhydryl-5-(4-nitrophenyl)-5H-pyrimido [5′,4′:5,6]pyrano[2,3-d]pyrimidine-4,6,8-triol] | 0.0-0.0% | 95% | 15-60% | 50% | 0.0-0.0% | – | – | 100.0% | 100.0% | 100.0% | 90% | – | – |
| 265 to 267 °C | O=[N+]([O-])c1ccc(C2c3c(O)nc(Cl)nc3Oc3nc(Cl)nc(Cl)c32)cc1 (stereo not shown) [Derivative 3, 2,6,8-trichloro-5-(4-nitrophenyl)-5H-pyrimido [5′, 4′:5,6] pyrano [2,3-d] pyrimidin-4-ol] | 15-70% | 50% | 18-92% | 30% | 10-40% | – | – | 100.0% | 100.0% | 100.0% | 65% | – | – |
| – | O=[N+]([O-])c1ccc(C2c3c(O)nc(Cl)nc3Oc3nc(Cl)nc(O)c32)cc1 [Derivative 1] | 0.0-0.0% | 100% | 0.0-0.0% | 90% | 0.0-0.0% | – | – | 100.0% | 100.0% | 100.0% | 100% | 2.58 +/− 0.33 Log10 IU/ml | – |
| – | Oc1nc(Cl)nc2c1C(c1ccccc1)c1c(O)nc(Cl)nc1O2 [Derivative 5] | 0.0-0.0% | 100% | 57.5-80.0% | 10.7% | 37.5-62.5% | – | – | 100.0% | 100.0% | 100.0% | 71.7% | – | – |
| – | O=[N+]([O-])c1ccc(C2c3c(O)nc(S)nc3Oc3nc(Cl)nc(O)c32)cc1 (stereo not shown) [Derivative 2, 2-chloro-8-sulfhydryl-5-(4-nitrophenyl)-5H-pyrimido [5′,4′:5,6]pyrano[2,3-d]pyrimidine-4.6-diol] | 0.0-0.0% | 100% | 96-100% | 0% | 55-80% | – | – | 100.0% | 100.0% | 100.0% | 10% | 2.65 +/− 0.19 Log10 IU/ml | – |
